Experimental data published in ChEMBL document CHEMBL1201862, “PubChem BioAssay data set” (2004).
Calls of active or inactive are those of the source.

How the values were obtained:
[1] = HEp-2 cell cytotoxicity, dose response, cytotoxicity control for RSV inhibitor project, HTS (AID 2410); format: functional; conditions: human respiratory syncytial virus
[2] = biological target: Luciferin 4-monooxygenase (Photinus pyralis, UniProt P08659); test: Counter Screen for Luciferase-based Assay Positives. [Related pubchem assays: 620, 618, 411 ]
Chain of Luciferin 4-monooxygenase (P08659 whole entry): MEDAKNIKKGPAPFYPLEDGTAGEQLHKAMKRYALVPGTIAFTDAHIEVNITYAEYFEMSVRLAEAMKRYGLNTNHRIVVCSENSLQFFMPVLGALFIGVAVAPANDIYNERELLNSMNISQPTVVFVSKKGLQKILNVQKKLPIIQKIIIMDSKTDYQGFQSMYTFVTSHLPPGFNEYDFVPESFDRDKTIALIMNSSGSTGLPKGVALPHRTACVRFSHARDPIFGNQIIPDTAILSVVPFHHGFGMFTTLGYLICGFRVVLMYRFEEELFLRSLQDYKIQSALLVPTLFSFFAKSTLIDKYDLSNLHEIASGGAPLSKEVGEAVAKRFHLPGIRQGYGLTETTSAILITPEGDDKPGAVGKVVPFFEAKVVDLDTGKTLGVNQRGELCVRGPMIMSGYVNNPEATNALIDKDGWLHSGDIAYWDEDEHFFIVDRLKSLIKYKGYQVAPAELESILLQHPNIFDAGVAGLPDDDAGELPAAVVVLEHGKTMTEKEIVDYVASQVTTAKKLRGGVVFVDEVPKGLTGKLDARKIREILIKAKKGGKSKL

HT-1080 = test: cytotoxicity in HT1080 fibrosarcoma cells, cell-based, fluorescence readout (AID 620); format: functional; conditions: Homo sapiens
Troponin, cardiac muscle = Troponin, cardiac muscle (Homo sapiens, UniProt P19429+P45379+P63316); test: Fluorescence-based biochemical high throughput dose response assay for activators of the calcium sensitivity of cardiac Regulated Thin Filaments (RTF). [Related pubchem assays (depositor defined):AID493008, AID493018, AID504382, AID504383]; format: protein-complex assay
Protein skinhead-1 = biological target: T1, Protein skinhead-1 (Caenorhabditis elegans, UniProt P34707); format: functional
T1 sequence (P34707 whole entry): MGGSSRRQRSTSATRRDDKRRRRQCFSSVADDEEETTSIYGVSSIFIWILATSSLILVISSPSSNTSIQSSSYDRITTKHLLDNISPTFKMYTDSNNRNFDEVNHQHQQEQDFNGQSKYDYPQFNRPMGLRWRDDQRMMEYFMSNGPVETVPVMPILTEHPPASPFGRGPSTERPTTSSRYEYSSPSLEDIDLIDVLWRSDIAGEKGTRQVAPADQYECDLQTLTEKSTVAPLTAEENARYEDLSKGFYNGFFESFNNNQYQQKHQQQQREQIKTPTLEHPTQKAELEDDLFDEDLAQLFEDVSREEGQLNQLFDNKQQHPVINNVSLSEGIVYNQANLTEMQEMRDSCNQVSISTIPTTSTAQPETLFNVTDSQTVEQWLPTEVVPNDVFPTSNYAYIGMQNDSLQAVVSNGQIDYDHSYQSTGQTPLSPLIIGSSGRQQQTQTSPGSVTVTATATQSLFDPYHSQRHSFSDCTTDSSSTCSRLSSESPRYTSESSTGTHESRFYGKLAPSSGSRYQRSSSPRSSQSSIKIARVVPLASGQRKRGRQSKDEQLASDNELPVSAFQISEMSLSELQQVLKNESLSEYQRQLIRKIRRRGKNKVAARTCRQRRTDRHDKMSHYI

[3] = cytotoxicity in HPDE-C7 cells, cell-based, fluorescence, HTS (AID 430); format: functional; conditions: Homo sapiens
[4] = cytotoxicity in KRAS-transformed pancreatic duct cells, primary screen, cell-based, fluorescence, HTS (AID 431); format: functional; conditions: Homo sapiens;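 further: cell line used: HPDE-C7K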
[5] = A549 cell cytotoxicity, dose response, cytotoxicity control, plate reader, cherry-pick, antagonist series (AID 743412); format: functional, cell-based
[6] = HepG2 cell cytotoxicity, dose response, cytotoxicity control, plate reader, cherry-pick, antagonist series (AID 743416); format: functional, cell-based
[7] = LGR2 antagonists, dose response, cell-based, HEK293, CRE-luciferase reporter, cherry pick, set 2 (AID 743343); format: functional;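 further: transfected cells were stimulated with diluted bursicon conditioned medium after compound addition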
[8] = MC4R antagonists, dose response, counter-screen for LGR2 antagonist project, cell-based, plate reader, cherry pick (AID 743444); format: functional;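 further: transfected HEK 293 cells stimulated with alpha-MSH peptide; potency of inhibitors of the alpha-MSH evoked signal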
[9] = HEK293 cell cytotoxicity, dose response, cytotoxicity control, plate reader, cherry-picked samples (AID 743446); format: functional, cell-based
[10] = M. tuberculosis H37Rv growth inhibitors, H37Rv strain (AID 1626); format: functional
[11] = biological target: T2, Neuropeptide Y receptor type 2 (Homo sapiens, UniProt P49146); test: NPY-Y2 antagonist potency, selectivity check, dose response, counter-screen for NPY-Y1 antagonist project, cell-based (AID 1278); format: functional
T2 sequence (P49146 whole entry): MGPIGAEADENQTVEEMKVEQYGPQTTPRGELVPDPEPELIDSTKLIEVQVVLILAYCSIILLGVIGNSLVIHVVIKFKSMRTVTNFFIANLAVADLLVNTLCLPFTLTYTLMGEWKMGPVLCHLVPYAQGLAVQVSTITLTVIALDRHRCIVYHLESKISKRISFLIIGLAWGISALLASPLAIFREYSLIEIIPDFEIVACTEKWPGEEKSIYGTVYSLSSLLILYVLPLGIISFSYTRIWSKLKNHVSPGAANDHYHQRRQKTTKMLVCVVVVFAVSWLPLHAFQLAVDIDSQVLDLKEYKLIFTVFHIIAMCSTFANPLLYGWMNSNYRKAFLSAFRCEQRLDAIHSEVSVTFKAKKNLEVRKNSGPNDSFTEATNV

[12] = biological target: T3, Neuropeptide Y receptor type 1 (Homo sapiens, UniProt P25929); test: NPY-Y1 receptor antagonist potency, dose response, cell-based (AID 1277); format: functional
T3 sequence (P25929 whole entry): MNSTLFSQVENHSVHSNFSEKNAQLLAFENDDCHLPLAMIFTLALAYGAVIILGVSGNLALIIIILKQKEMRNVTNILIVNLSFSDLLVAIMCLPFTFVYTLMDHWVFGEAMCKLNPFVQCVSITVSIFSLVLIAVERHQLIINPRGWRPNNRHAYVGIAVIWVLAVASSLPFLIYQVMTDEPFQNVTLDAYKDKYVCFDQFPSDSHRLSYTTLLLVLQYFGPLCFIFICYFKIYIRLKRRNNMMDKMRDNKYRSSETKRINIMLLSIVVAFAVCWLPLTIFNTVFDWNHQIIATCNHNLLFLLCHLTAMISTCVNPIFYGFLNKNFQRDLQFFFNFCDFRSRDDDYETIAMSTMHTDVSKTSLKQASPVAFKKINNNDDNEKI

[13] = NIH-3T3 fibroblast cytotoxicity, dose response, cytotoxicity control, cell-based, fluorescence, Alamar Blue, secondary assay (AID 2327); format: functional;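 further: NIH-3T3 mouse fibroblasts cultured with fluconazole at 8 µg/mL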
[14] = C. albicans growth with fluconazole, confirmation, fluorescence, retest (AID 2467); format: functional, cell-based
[15] = biological target: T4, Mannose-6-phosphate isomerase (Homo sapiens, UniProt P34949); test: inhibitors of human PMI, primary screen, biochemical, fluorescence intensity, coupled assay (AID 1209)
T4 sequence (P34949 whole entry): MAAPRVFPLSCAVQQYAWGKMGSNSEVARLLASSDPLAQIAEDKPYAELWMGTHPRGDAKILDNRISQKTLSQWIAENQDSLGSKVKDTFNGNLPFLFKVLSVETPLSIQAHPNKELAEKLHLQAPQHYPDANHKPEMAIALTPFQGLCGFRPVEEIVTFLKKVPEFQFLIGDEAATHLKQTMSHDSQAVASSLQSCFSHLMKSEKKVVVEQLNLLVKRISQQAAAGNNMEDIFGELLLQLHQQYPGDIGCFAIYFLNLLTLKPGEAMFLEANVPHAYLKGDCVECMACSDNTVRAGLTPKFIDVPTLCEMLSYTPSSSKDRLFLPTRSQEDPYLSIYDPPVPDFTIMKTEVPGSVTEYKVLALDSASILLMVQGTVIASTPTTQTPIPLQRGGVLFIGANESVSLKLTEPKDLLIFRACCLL

[16] = biological target: T4, Mannose-6-phosphate isomerase; test: human PMI inhibitors, high substrate, primary screen, biochemical, fluorescence intensity, high mannose 6-phosphate (AID 1220)
[17] = system: Streptococcus sp. 'group A'; test: growth inhibition of control SK(-) GAS strain, dose response, counter-screen for streptokinase expression inhibitor project, luminescence, kanamycin, BacTiterGlo, confirmation (AID 1900); format: functional, organism-based
Streptokinase A = biological target: T5, Streptokinase A (Streptococcus pyogenes serotype M1, UniProt P10520); test: S. pyogenes streptokinase expression inhibitors, potency, dose response, plasminogen activation absorbance, OD405 (AID 1914); format: functional, Streptococcus pyogenes M1 GAS;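 further: secreted streptokinase activity via plasminogen activation per viability signal from cell pellet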
T5 sequence (P10520 whole entry): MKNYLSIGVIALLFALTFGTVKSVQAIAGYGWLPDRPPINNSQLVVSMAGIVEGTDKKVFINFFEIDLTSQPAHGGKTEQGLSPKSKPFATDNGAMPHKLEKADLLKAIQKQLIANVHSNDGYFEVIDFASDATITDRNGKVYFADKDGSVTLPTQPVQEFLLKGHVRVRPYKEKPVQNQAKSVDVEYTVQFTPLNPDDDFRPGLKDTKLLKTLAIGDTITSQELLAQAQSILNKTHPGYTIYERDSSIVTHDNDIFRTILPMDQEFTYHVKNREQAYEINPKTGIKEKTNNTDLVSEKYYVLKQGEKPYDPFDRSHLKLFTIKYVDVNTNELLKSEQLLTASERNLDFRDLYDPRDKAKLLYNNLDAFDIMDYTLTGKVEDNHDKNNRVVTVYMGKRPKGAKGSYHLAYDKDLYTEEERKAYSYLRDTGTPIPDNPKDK

Streptococcus = test: Group A Streptococcus viability loss, dose response, counter-screen for streptokinase expression inhibitor project, luminescence, BacTiterGlo (AID 1915); format: functional, organism-based;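 further: potency for reduction of bacterial viability or growth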
[18] = Luminescence Cell-Based Dose Retest to Confirm Inhibitors of Cancer Stem Cells. [Related pubchem assays (depositor defined):AID2717, AID2721]; format: functional; conditions: Homo sapiens

## Fc1ccc(-c2nnc(-c3ccc(Cl)cc3Cl)o2)cc1
[1]
  CC50: 37 µM (active)
[2]
  EC50: 2.56 µM (active)
HT-1080
  EC50: > 50 µM (not active)
Troponin, cardiac muscle
  EC50: > 71.5 µM (inactive)
Protein skinhead-1
  IC50: > 100 µM (inactive)

## O=[N+]([O-])c1ccccc1S(=O)(=O)Nc1cccc(-c2ccc(N3CCCC3)nn2)c1
[1]
  CC50: 40.6 µM (active)
cells
  IC50: 5.15 µM (active)

## O=S(=O)(CCSc1nc2ccccc2o1)c1nc2ccccc2s1
[3]
  EC50: 4.88 µM (active)
[4]
  EC50: 5.33 µM (active)
[5]
  AC50: 44.4 µM (active)
[6]
  AC50: 5.74 µM (active)
[7]
  AC50: 2.43 µM (active)
[8]
  AC50: 1.8 µM (active)
[9]
  AC50: 6.8 µM (active)

## COc1ccc(NC2(C#N)CCCCC2)cc1
[10]
  IC50: > 100 µM (active)

## COc1ccc(C(=O)Nc2nc3c(s2)CCCC3)cc1S(=O)(=O)N1CCCc2ccccc21
[1]
  CC50: 3.66 µM (active)
cells
  IC50: 5.95 µM (active)

## COc1ccc(N2CCN(C(c3cccc(OC)c3OC)c3nnnn3C3CCCC3)CC2)cc1 (centres undefined)
[11]
  IC50: > 35 µM (not active)
[12]
  IC50: > 35 µM (not active)

## N=C1/C(=C\c2ccc(SCc3ccccc3)o2)C(=O)N=C2SC=NN12
[13]
  EC50: > 150 µM (inactive)
[14]
  EC50: 5.72 µM (active)
[15]
  IC50: > 50 µM (not active)

## COc1ccc2c(c1)C(C)=CC(C)(C)N2C(=O)Nc1ccccc1
[15]
  IC50: > 50 µM (not active)
[16]
  IC50: > 50 µM (not active)

## c1ccc(-c2cc3c(NCC4COc5ccccc5O4)ncnc3s2)cc1 (centres undefined)
[17]
  EC50: 3 µM (active)
Streptokinase A
  EC50: 3.29 µM (active)
[10]
  IC50: > 100 µM (active)
Streptococcus
  EC50: 21.7 µM (active)
[18]
  AC50: 3.96 µM (active)
